10 molecules from US20230131899A1, “INHIBITORS OF MICROBIALLY INDUCED AMYLOID” (Axial Therapeutics, Inc., priority 2020, published 2023) can be followed below.

The term inhibition denotes the share of the control response that was lost under treatment. Broadly, the IC50 is the concentration that inhibits the measured activity by half.

For test [1], the target named is T1, human α-synuclein (Homo sapiens, UniProt P37840).
T1 construct: the full-length gene for untagged human α-synuclein was inserted; made in house; host or cells: E. coli BL21(DE3), plasmid derived from pT7 or pET11a
The experiment in a line: Cell-free Thioflavin T assay of α-synuclein aggregation (αSyn ThT Assay). In kind it is biochemical. The settings on record: αSyn 50 μM, compounds at 100 μM. The protocol:
To assess the effects of compounds on aggregation of α-synuclein, a cell-free assay was performed using purified α-synuclein and Thioflavin T. In the assay, human α-synuclein was expressed in E. coli BL21(DE3) from a plasmid derived from pT7 or pET11a into which the full-length gene for untagged human α-synuclein was inserted. Cells were induced at OD600 0.6 with 0.8 mM IPTG for 4 hours, harvested by centrifugation and suspended in a volume of lysis buffer (10 mM Tris, pH 8.0, 1 mM EDTA, and 1 mM PMSF) equivalent to one-tenth the volume of culture and lysed by boiling for 20 minutes. Cell debris was pelleted by centrifugation, clarified lysate was treated with 10% streptomycin sulfate at 136 μL/mL followed by glacial acetic acid at 228 μL/mL, lysate was centrifuged, supernatant was transferred to a fresh tube and protein was precipitated via addition of an equal volume of saturated (100%) ammonium sulfate and incubated at 4° C. on a rocking shaker for 1 hour. The protein was pelleted via centrifugation and washed with an equal volume of 100 mM ammonium acetate in chilled ethanol, pelleted via centrifugation, washed twice with chilled ethanol, dried overnight, resuspended in 50 mM potassium phosphate buffer pH 7.3 or 10 mM Tris pH 7.4, and passed through a 50 kDa cut-off column. Immediately prior to use, the purified α-synuclein was filtered with a 0.2 μm nylon filter. The assay was conducted in 96-well black microplates with a single 1-2 mm glass bead in each well, 20-40 μM ThioflavinT, 1% DMSO, α-synuclein at 50 μM and compounds at 20-100 μM. Plates were sealed with sealing tape (ThermoFisher 232701), incubated at 37° C. in a Tecan Nano F200 plate reader with excitation at 438 nm using a 439 nm filter with a bandwidth of 8 nm, and emission at 495 nm with a 490 nm filter with a bandwidth of 10 nm. During the assay, plates were shaken continuously or were shaken for 999 seconds every 18 minutes. Readings were performed hourly for up to 73 hours. The effect of compounds on α-synuclein aggregation in the assay was determined with data at 36, 47, 48 or 72 hours or from the final timepoint of the assay, prior to or roughly near the time when ThT fluorescence plateaued in the vehicle control wells. The vehicle controls contained all components of the assay except compounds and represented the level of α-synuclein aggregation in the absence of an inhibitor or accelerator. Fluorescence values for each compound with α-synuclein were first adjusted by subtracting the average fluorescence of the compound in the absence of α-synuclein. These adjusted values were normalized by dividing them by the average fluorescence at the same timepoint in the vehicle control wells, and the average normalized fluorescence with the compound was expressed as a percentage of the average fluorescence observed in untreated controls. Percent inhibition of α-synuclein aggregation by a compound was determined by subtracting the percent average fluorescence with the compound relative to the average vehicle control from 100%. A higher positive percent inhibition reflects greater inhibition of α-synuclein aggregation, while a negative percent inhibition reflects potentiation of α-synuclein aggregation.
Alternate concentrations of Thioflavin T may be used in the assay and may affect the fluorescent signal and sensitivity of the assay. Alternate concentrations of α-synuclein may be used and such alterations may affect aggregation kinetics of α-synuclein in the assay. Alternate concentrations of compounds may be tested in the assay, and dose-responses may be evaluated. Additional reagents may be added to the assay which may affect aggregation kinetics of α-synuclein depending on their concentration, including detergents such as sodium dodecyl sulfate, sodium chloride, dithiotreitol, or bovine serum albumin. Shaking may be included at alternate intervals in the assay and may affect α-synuclein aggregation kinetics. […]

The subject of test [2] is CsgA gene expression (csgBAC promoter-GFP reporter) in E. coli UTI89. Briefly: In vitro live cell fluorescent reporter assay of CsgA transcription (Reporter Assay). In kind it is cell-based. The note with it: Escherichia coli. The gist of the method: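 Compounds at 0.14–100 μM (1% DMSO final) incubated 20 h at 27 °C in YESCA broth with UTI89 carrying a single-copy GFP reporter under the csgBAC intergenic promoter region, inoculum OD600 0.003. Fluorescence normalized to vehicle wells gave IC50 and 50%-of-vehicle concentration; OD600 reduction >10% flagged growth impact.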

Test [3] concerns the target T2, E. coli CsgA (Escherichia coli, UniProt P28307).
T2 construct: made in house; host or cells: E. coli NEB 3016 slyD::kan, pET11d
The experiment in a line: In vitro ThioflavinT assay of CsgA aggregation (CsgA ThT Assay). In kind it is biochemical. The note with it: for remaining activity at 25 µM: compound 25 μM; for remaining activity at 100 µM: compound 100 μM. The procedure, abridged:
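Purified C-terminal His-tagged CsgA, monomerised by desalting and 30-kDa filtration, at 2-20 μM with 20-40 μM ThT in 50 mM potassium phosphate pH 7.3, 1% DMSO, compounds 3.125-200 uM; room temperature, fluorescence (ex 438/em 495 nm) read every 15 min. Background-subtracted signal expressed as percent inhibition versus vehicle at 6-6.5 or 8-9 h, or as percent control AUC.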

[4] abbreviates: mean % inhibition of αSyn aggregation relative to DMSO control, read-out: αSyn ThT Assay % Inhibition.
Setting [5] is: class symbol, read-out: αSyn ThT Assay % Inhibition (activity range).
Where [6] appears, read: read-out: Reporter Assay Abs IC50 (μM), median Abs IC50 in the CsgA reporter assay, N/A = maximum expression reduction is <50% of control.
Where [7] appears, read: read-out: Reporter Assay Abs IC50, activity range, class symbol.
Setting [8] is: read-out: CsgA ThT Assay (2 μM CsgA) % Control Bmax 25 μM, activity range, class symbol, CsgA 2 μM, white plates.
Where [9] appears, read: read-out: CsgA ThT Assay (2 μM CsgA) % Control Bmax 25 μM, mean Bmax as percentage of DMSO control, CsgA 2 μM, white plates.
Where [10] appears, read: read-out: CsgA ThT Assay (2 μM CsgA) % Control Bmax 100 μM, activity range, class symbol, CsgA 2 μM, white plates.
[11] abbreviates: read-out: CsgA ThT Assay (2 μM CsgA) % Control Bmax 100 μM, mean Bmax as percentage of DMSO control, CsgA 2 μM, white plates.
[12] abbreviates: read-out: Reporter Assay Abs IC50 (activity range), median Abs IC50 in the CsgA reporter assay, class symbol.
Where [13] appears, read: read-out: CsgA ThT Assay (10 μM CsgA) % Control AUC at 1005 minutes, 25 μM (activity range), CsgA 10 μM, black plates, 1005 minutes, class symbol.
[14] abbreviates: read-out: CsgA ThT Assay (10 μM CsgA) % Control AUC at 1005 minutes, 25 μM, mean AUC as % of DMSO control, CsgA 10 μM, black plates, 1005 minutes.
Setting [15] is: read-out: CsgA ThT Assay (10 μM CsgA) % Control AUC at 1005 minutes, 100 μM (activity range), CsgA 10 μM, black plates, 1005 minutes, class symbol.
[16] abbreviates: read-out: CsgA ThT Assay (10 μM CsgA) % Control AUC at 1005 minutes, 100 μM, mean AUC as % of DMSO control, CsgA 10 μM, black plates, 1005 minutes.

Read-outs that look alike come from different tables or passages of the source. Some results are limits rather than exact numbers.

T2 sequence (P28307 23-151): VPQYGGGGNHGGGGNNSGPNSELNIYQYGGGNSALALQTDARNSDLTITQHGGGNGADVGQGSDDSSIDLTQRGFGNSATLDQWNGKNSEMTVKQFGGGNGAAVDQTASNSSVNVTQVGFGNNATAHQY

For `CN1CC(C(=O)O)n2c(c(-c3cccc(C(F)(F)F)c3)c(Cc3cccc4ccccc34)cc2=O)S1(=O)=O` (single isomer, unassigned) [Compound 008b, 2-methyl-8-(naphthalen-1-ylmethyl)-6-oxo-9-(3-(trifluoromethyl)phenyl)-3,4-dihydro-2H,6H-pyrido[1,2-e][1,2,5]thiadiazine-4-carboxylic acid 1,1-dioxide], the “αSyn ThT Assay % Inhibition” value in test [1] (mean % inhibition of αSyn aggregation relative to DMSO control) worked out at 10%. For the same molecule, the “αSyn ThT Assay % Inhibition (activity range)” value in test [1] (class symbol) was “(−) ((−) represents −10 to 10)”.

As to `O=C(O)C1CNS(=O)(=O)c2c(-c3cccc(C(F)(F)F)c3)c(Cc3cccc4ccccc34)cc(=O)n21` (racemic) [Compound 009, 8-(naphthalen-1-ylmethyl)-6-oxo-9-(3-(trifluoromethyl)phenyl)-3,4-dihydro-2H,6H-pyrido[1,2-e][1,2,5]thiadiazine-4-carboxylic acid 1,1-dioxide], the inhibition at 100 µM in test [1] (setting [4]) is 28%; in test [1] (setting [5]), 11 to 30%.

As for `O=C(O)C1CS(=O)(=O)c2c(-c3cccc(C(F)(F)F)c3)c(Cc3cccc4ccccc34)cc(=O)n21` (racemic) [Compound 010, 7-(naphthalen-1-ylmethyl)-5-oxo-8-(3-(trifluoromethyl)phenyl)-2,3-dihydro-5H-thiazolo[3,2-a]pyridine-3-carboxylic acid 1,1-dioxide], the inhibition at 100 µM in test [1] (setting [4]) is 13%; in test [1] (setting [5]) it was 11 to 30%.

For `O=C(O)C1CS(=O)(=O)c2c(-c3cccc(C(F)(F)F)c3)c(Cc3cccc4ccccc34)cc(=S)n21` (racemic) [Compound 014, 7-(naphthalen-1-ylmethyl)-5-thioxo-8-(3-(trifluoromethyl)phenyl)-2,3-dihydro-5H-thiazolo[3,2-a]pyridine-3-carboxylic acid 1,1-dioxide], the inhibition at 100 µM is 35% in test [1] (setting [4]) and 31 to 60% in test [1] (setting [5]).

Regarding `O=C(O)C1CN(Cc2ccccc2)c2c(-c3cccc(C(F)(F)F)c3)c(CN3CCCc4ccccc43)c(Cl)c(=O)n21` (stereo not drawn) [Compound 217, 1-benzyl-6-chloro-7-((3,4-dihydroquinolin-1 (2H)-yl)methyl)-5-oxo-8-(3-(trifluoromethyl)phenyl)-1,2,3,5-tetrahydroimidazo[1,2-a]pyridine-3-carboxylic acid], the 50% inhibitory concentration (IC50) in test [2] (setting [6]) was 1.1 µM; in test [2] (setting [7]), below 1.3 µM. Further, the remaining activity at 25 µM is above 60% in test [3] (setting [8]) and 65% in test [3] (setting [9]).

Regarding `O=C(O)[C@@H]1CN(Cc2ccccc2)c2c(-c3cccc(C(F)(F)F)c3)c(Cc3cccc4ccccc34)c(Br)c(=O)n21` (single isomer, unassigned) [Compound 189], the IC50 was 1.4 µM in test [2] (setting [6]) and 1.3 to 4.5 µM in test [2] (setting [7]). The remaining activity at 25 µM in test [3] (setting [8]) was 31 to 60%; in test [3] (setting [9]), 58%. For the same molecule, the remaining activity at 100 µM in test [3] (setting [10]) is 31 to 60%; in test [3] (setting [11]), 49%.

As for `O=C(c1nc(=O)n2c(c1-c1cccc(C(F)(F)F)c1)SCC2C(=O)O)c1cccc2ccccc12` (stereo not drawn) [Compound 055, 7-(1-naphthoyl)-5-oxo-8-(3-(trifluoromethyl)phenyl)-2,3-dihydro-5H-thiazolo[3,2-c]pyrimidine-3-carboxylic acid], the concentration for half-maximal inhibition (IC50) in test [2] (setting [12]) is above 10 µM; in test [2] (setting [6]) it was 11 µM. The remaining activity at 25 µM is above 60% in test [3] (setting [13]) and 73% in test [3] (setting [14]). The remaining activity at 100 µM in test [3] (setting [15]) is 11 to 31%; in test [3] (setting [16]) it was 17%.

`CC(C)(C)c1cccc(Cc2c(-c3cccc(C(F)(F)F)c3)c3n(c(=O)c2Cl)C(C(=O)O)CN3Cc2ccccc2)c1` (stereo not drawn) [Compound 215, 1-benzyl-7-(3-(tert-butyl)benzyl)-6-chloro-5-oxo-8-(3-(trifluoromethyl)phenyl)-1,2,3,5-tetrahydroimidazo[1,2-a]pyridine-3-carboxylic acid]: the IC50 was 1.3 µM in test [2] (setting [6]) and 1.3 to 4.5 µM in test [2] (setting [7]). For the same molecule, the remaining activity at 25 µM was above 60% in test [3] (setting [8]) and 97% in test [3] (setting [9]). The remaining activity at 100 µM in test [3] (setting [10]) was above 60%; in test [3] (setting [11]) it was 61%.

On to `CCCN1CC(C(=O)O)n2c(c(-c3cccc(C(F)(F)F)c3)c(Cc3cccc4ccccc34)c(C(C)C)c2=O)S1(=O)=O` (stereo not drawn) [Compound 125, 7-isopropyl-8-(naphthalen-1-ylmethyl)-6-oxo-2-propyl-9-(3-(trifluoromethyl)phenyl)-3,4-dihydro-2H,6H-pyrido[1,2-e][1,2,5]thiadiazine-4-carboxylic acid 1,1-dioxide], for which the IC50 in test [2] (setting [12]) is 1.3 to 4.5 µM; in test [2] (setting [6]), 2.7 µM. Also, the remaining activity at 25 µM in test [3] (setting [13]) was 11 to 31%; in test [3] (setting [14]), 25%. Also, the remaining activity at 100 µM in test [3] (setting [15]) is 31 to 60%; in test [3] (setting [16]), 44%.

Take `O=c1cc(Cc2cccc3ccccc23)c(-c2cccc(C(F)(F)F)c2)c2n1C(CO)CS2` (stereo not drawn) [Compound 118, 3-(hydroxymethyl)-7-(naphthalen-1-ylmethyl)-8-(3-(trifluoromethyl)phenyl)-2,3-dihydro-5H-thiazolo[3,2-a]pyridin-5-one]: the IC50 in test [2] (setting [12]) is 1.3 to 4.5 µM; in test [2] (setting [6]), 3.9 µM. The remaining activity at 25 µM in test [3] (setting [13]) is above 60%; in test [3] (setting [14]), 92%. Besides, the remaining activity at 100 µM was above 60% in test [3] (setting [15]) and 76% in test [3] (setting [16]).
